What all share (assay): Mass spectroscopy proteomics, semi-quantitative binding affinity of serum proteins (plaqueproteome, Table 2)
Holding throughout (conditions): higher number = stronger affinity

Assay [1] has as its target T1, Abeta-42 plaque particles (Homo sapiens, UniProt P05067).
T1 construct: Abeta 1-42
In outline: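 AD patient serum or plasma (50% in PBS) was incubated with Abeta-42 aggregates (30 μg) for 1 h at 37 °C, then stained with Thioflavin S for 30 min. Labeled particles were FACS-sorted, trypsin/Lys-C digested overnight and analyzed by MS/MS. Sequest searched human UniProt; Scaffold/Protein Prophet validated the identifications.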

The target in assay [2] is T2, alpha-synuclein plaque particles (Homo sapiens, UniProt P37840).
T2 construct: 140 amino acids polypeptide
In outline: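 AD-subject plasma or serum (800 μL of 50%) mixed with 30 μg preformed alpha-synuclein aggregates for 1 h at 37 °C; Thioflavin S-positive particles isolated by flow sorting. After reduction, acrylamide alkylation and overnight tryptic digestion, serum proteins identified by MS/MS with Sequest and Scaffold.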

In assay [3] the test system is High Density cholesterol (Chl Large) plaque particles. On the set-up: species or system human. In outline: (§1)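 Serum or plasma from atherosclerotic subjects, diluted to 50% in PBS, was incubated with cholesterol aggregates (30 μg per 1 mL reaction) at 37° C for 1 hr. Small and large cholesterol plaque particles were sorted by flow cytometry gating, trypsin-digested and analysed by MS/MS against a human UniProt database.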

The test system of assay [4] is Low density cholesterol (Chl small) plaque particles. Also noted: species or system human. In outline:
as §1

Assay [5] deals with Tau plaque particles. On the set-up: species or system human. In outline: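 Synthetic Tau-74 and Tau-275 peptides (1 mg/mL PBS, 37° C, 2 h) aggregated; 30 μg aggregates incubated with 50% serum/plasma 1 h at 37° C, stained with Thioflavin S, and plaque particles sorted by flow cytometry. Bound proteins trypsin-digested and identified by MS/MS against human UniProt.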

Data on 18 substances can be found in patent publication US9618524B2, “Method, composition, isolation and identification of a plaque particle and related biomarker” (Plaxgen Inc., priority 2012, dated 2017).

Consider Complement component C6, for which the “Semi-quantitative analysis of proteins binding to different plaque particles: Abeta-42” value in assay [1] turned out to be 0. Besides, in assay [2], the “Semi-quantitative analysis of proteins binding to different plaque particles: Synuclein” value is 3. The “Semi-quantitative analysis of proteins binding to different plaque particles: Chl Large” value in assay [3] is 1. Besides, the “Semi-quantitative analysis of proteins binding to different plaque particles: Chl small” value in assay [4] was 1. Moreover, the “Semi-quantitative analysis of proteins binding to different plaque particles: Tau” value in assay [5] was 1.
For Complement component C7, the “Semi-quantitative analysis of proteins binding to different plaque particles: Abeta-42” value in assay [1] is given as 0. Moreover, the “Semi-quantitative analysis of proteins binding to different plaque particles: Synuclein” value in assay [2] was 1. Further, in assay [3], the “Semi-quantitative analysis of proteins binding to different plaque particles: Chl Large” value stood at 4. Also, the “Semi-quantitative analysis of proteins binding to different plaque particles: Chl small” value in assay [4] turned out to be 6. Also, in assay [5], the “Semi-quantitative analysis of proteins binding to different plaque particles: Tau” value turned out to be 4.
With Complement component C8 alpha chain, in assay [1], the “Semi-quantitative analysis of proteins binding to different plaque particles: Abeta-42” value was found to be 0. The “Semi-quantitative analysis of proteins binding to different plaque particles: Synuclein” value in assay [2] is on record as 0. Also, the “Semi-quantitative analysis of proteins binding to different plaque particles: Chl Large” value in assay [3] worked out at 3. Also, in assay [4], the “Semi-quantitative analysis of proteins binding to different plaque particles: Chl small” value is listed as 2. In addition, in assay [5], the “Semi-quantitative analysis of proteins binding to different plaque particles: Tau” value came out at 0.
As for Complement component C8 beta chain, the “Semi-quantitative analysis of proteins binding to different plaque particles: Abeta-42” value in assay [1] came to 0. Further, in assay [2], the “Semi-quantitative analysis of proteins binding to different plaque particles: Synuclein” value was 0. The “Semi-quantitative analysis of proteins binding to different plaque particles: Chl Large” value in assay [3] came out at 1. Further, the “Semi-quantitative analysis of proteins binding to different plaque particles: Chl small” value in assay [4] is recorded as 2. In assay [5], the “Semi-quantitative analysis of proteins binding to different plaque particles: Tau” value is given as 2.
For the substance Complement component C8 gamma chain, the “Semi-quantitative analysis of proteins binding to different plaque particles: Abeta-42” value in assay [1] is reported as 0. The “Semi-quantitative analysis of proteins binding to different plaque particles: Synuclein” value in assay [2] is 2. Besides, the “Semi-quantitative analysis of proteins binding to different plaque particles: Chl Large” value in assay [3] was determined as 0. For the same substance, the “Semi-quantitative analysis of proteins binding to different plaque particles: Chl small” value in assay [4] turned out to be 1. Moreover, in assay [5], the “Semi-quantitative analysis of proteins binding to different plaque particles: Tau” value was 2.
Take Complement component C9: the “Semi-quantitative analysis of proteins binding to different plaque particles: Abeta-42” value in assay [1] came out at 0. For the same substance, the “Semi-quantitative analysis of proteins binding to different plaque particles: Synuclein” value in assay [2] came out at 1. Further, the “Semi-quantitative analysis of proteins binding to different plaque particles: Chl Large” value in assay [3] is 1. Moreover, the “Semi-quantitative analysis of proteins binding to different plaque particles: Chl small” value in assay [4] is 1. The “Semi-quantitative analysis of proteins binding to different plaque particles: Tau” value in assay [5] stood at 0.
With Complement factor B, the “Semi-quantitative analysis of proteins binding to different plaque particles: Abeta-42” value in assay [1] is 12. Moreover, the “Semi-quantitative analysis of proteins binding to different plaque particles: Synuclein” value in assay [2] was determined as 10. Besides, the “Semi-quantitative analysis of proteins binding to different plaque particles: Chl Large” value in assay [3] amounted to 9. Besides, the “Semi-quantitative analysis of proteins binding to different plaque particles: Chl small” value in assay [4] turned out to be 14. In addition, in assay [5], the “Semi-quantitative analysis of proteins binding to different plaque particles: Tau” value is 13.
For Filaggrin the same measures were 2, 0, 0, 0 and 0.
Filaggrin-2: the “Semi-quantitative analysis of proteins binding to different plaque particles: Abeta-42” value in assay [1] is reported as 4. In addition, the “Semi-quantitative analysis of proteins binding to different plaque particles: Synuclein” value in assay [2] was found to be 0. Also, the “Semi-quantitative analysis of proteins binding to different plaque particles: Chl Large” value in assay [3] is listed as 0. The “Semi-quantitative analysis of proteins binding to different plaque particles: Chl small” value in assay [4] was found to be 0. Also, the “Semi-quantitative analysis of proteins binding to different plaque particles: Tau” value in assay [5] is on record as 0.
For the substance Gelsolin, in assay [1], the “Semi-quantitative analysis of proteins binding to different plaque particles: Abeta-42” value turned out to be 2. Further, the “Semi-quantitative analysis of proteins binding to different plaque particles: Synuclein” value in assay [2] is listed as 6. Further, the “Semi-quantitative analysis of proteins binding to different plaque particles: Chl Large” value in assay [3] is 8. In addition, in assay [4], the “Semi-quantitative analysis of proteins binding to different plaque particles: Chl small” value turned out to be 9. In assay [5], the “Semi-quantitative analysis of proteins binding to different plaque particles: Tau” value amounted to 9.
In the case of “Glyceraldehyde-3-phosphate dehydrogenase”, the “Semi-quantitative analysis of proteins binding to different plaque particles: Abeta-42” value in assay [1] was 5. Also, in assay [2], the “Semi-quantitative analysis of proteins binding to different plaque particles: Synuclein” value came out at 0. Also, the “Semi-quantitative analysis of proteins binding to different plaque particles: Chl Large” value in assay [3] is reported as 0. Moreover, the “Semi-quantitative analysis of proteins binding to different plaque particles: Chl small” value in assay [4] was 0. Further, the “Semi-quantitative analysis of proteins binding to different plaque particles: Tau” value in assay [5] came to 0.
Regarding Haptoglobin, the “Semi-quantitative analysis of proteins binding to different plaque particles: Abeta-42” value in assay [1] worked out at 23. The “Semi-quantitative analysis of proteins binding to different plaque particles: Synuclein” value in assay [2] was 22. Besides, in assay [3], the “Semi-quantitative analysis of proteins binding to different plaque particles: Chl Large” value is on record as 27. Also, the “Semi-quantitative analysis of proteins binding to different plaque particles: Chl small” value in assay [4] was found to be 29. Also, the “Semi-quantitative analysis of proteins binding to different plaque particles: Tau” value in assay [5] worked out at 24.
Taken in the same sequence, the figures for Hemoglobin subunit alpha were 2, 5, 4, 5 and 5.
Taken in the same sequence, the figures for Hemoglobin subunit delta were 0, 2, 0, 0 and 0.
For Hemopexin the same measures were 11, 18, 22, 16 and 16.
In the case of Histone H1.2, the “Semi-quantitative analysis of proteins binding to different plaque particles: Abeta-42” value in assay [1] came to 2. For the same substance, in assay [2], the “Semi-quantitative analysis of proteins binding to different plaque particles: Synuclein” value amounted to 0. In assay [3], the “Semi-quantitative analysis of proteins binding to different plaque particles: Chl Large” value came to 0. Further, the “Semi-quantitative analysis of proteins binding to different plaque particles: Chl small” value in assay [4] is 0. The “Semi-quantitative analysis of proteins binding to different plaque particles: Tau” value in assay [5] worked out at 0.
Turning to Hornerin, in assay [1], the “Semi-quantitative analysis of proteins binding to different plaque particles: Abeta-42” value is on record as 2. The “Semi-quantitative analysis of proteins binding to different plaque particles: Synuclein” value in assay [2] is on record as 0. The “Semi-quantitative analysis of proteins binding to different plaque particles: Chl Large” value in assay [3] is given as 0. Further, the “Semi-quantitative analysis of proteins binding to different plaque particles: Chl small” value in assay [4] worked out at 0. Moreover, in assay [5], the “Semi-quantitative analysis of proteins binding to different plaque particles: Tau” value was found to be 1.
Ig alpha-1 chain C region: in assay [1], the “Semi-quantitative analysis of proteins binding to different plaque particles: Abeta-42” value was 9. Moreover, in assay [2], the “Semi-quantitative analysis of proteins binding to different plaque particles: Synuclein” value is 11. Also, the “Semi-quantitative analysis of proteins binding to different plaque particles: Chl Large” value in assay [3] is recorded as 10. Further, the “Semi-quantitative analysis of proteins binding to different plaque particles: Chl small” value in assay [4] is 8. In addition, in assay [5], the “Semi-quantitative analysis of proteins binding to different plaque particles: Tau” value turned out to be 12.
